Experimental findings from patent publication US11293023B2, “Tunable endogenous protein degradation” (Dana-Farber Cancer Institute, Inc., priority 2015, dated 2022) are described below.

Structures are written as SMILES. “Also recorded” adds a separate entry of the source.

Test [1] concerns KRAS signaling (pMEK and pAKT). In words: Immunoblot of downstream surrogates of KRAS signaling in NIH3T3 cells expressing dTAG-KRAS. The test is classed as cell-based. How it is done: (§1) FIG. 11 is an immunoblot of NIH3T3 cells expressing KRASG12V allele fused to FKBP* in the N-terminus or C-terminus. Cells were treated with 500 nM dFKBP7 for the indicated time. Cells were harvested and immunoblotted to measure degradation of FKBP*-KRASG12V and downstream surrogates of KRAS signaling (e.g. pMEK and pAKT).
(§2) FIG. 12 is an immunoblot of NIH3T3 cells expressing FKBP* fused to the N-terminus of KRASG12V treated with 1 uM of the indicated dFKBP heterobifunctional compounds for 24 hours. Cells were harvested and immunoblotted to measure degradation of FKBP*-KRASG12V and downstream surrogates of KRAS signaling (e.g. pMEK and pAKT).
(§3) FIG. 13 is an immunoblot of NIH3T3 cells expressing FKBP* fused to the N-terminus of KRASG12V treated with the indicated concentrations of dFKBP13 for 24 hours. Cells were harvested and immunoblotted to measure degradation of FKBP*-KRASG12V and downstream surrogates of KRAS signaling (e.g. pMEK and pAKT).
(§4) FIG. 14 is an immunoblot of NIH3T3 cells expressing FKBP* fused to the N-terminus of KRASG12V treated with 1 uM dFKBP13 for the indicated time. Cells were harvested and immunoblotted to measure degradation of FKBP*-KRASG12V and downstream surrogates of KRAS signaling (e.g. pMEK and pAKT).
(§5) Cells were treated with 500 nM dFKBP7 for the indicated time. Cells were harvested and immunoblotted to measure degradation of FKBP*-KRAS and downstream surrogates of KRAS signaling (e.g. pMEK and pAKT).
(§6) In an effort to identify the best performing dFKBP molecule, dTAG-KRAS degradation was profiled across a series of dFKBP molecules. Western blotting of NIH3T3 cells expressing dTAG-KRASG12V were treated with 1 μM of the indicated dFKBP heterobifunctional compounds for 24 hours. Cells were harvested and immunoblotted to measure degradation of FKBP*-KRAS and downstream surrogates of KRAS signaling (e.g. pMEK and pAKT).
(§7) Western blotting of NIH3T3 cells expressing FKBP* fused to the N-terminus of KRAS treated with the indicated concentrations of dFKBP13 for 24 hours. Cells were harvested and immunoblotted to measure degradation of FKBP*-KRAS and downstream surrogates of KRAS signaling (e.g. pMEK and pAKT).
(§8) To evaluate the kinetic control of targeted degradation of dTAG-KRAS, dFKBP13 was administered by increased duration. Western blotting of NIH3T3 cells expressing FKBP* fused to the N-terminus of KRAS treated with 1 μM dFKBP13 for the indicated time. Cells were harvested and immunoblotted to measure degradation of FKBP*-KRAS and downstream surrogates of KRAS signaling (e.g. pMEK and pAKT).
The dFKBP13 heterobifunctional compound potently degrades dTAG-KRAS mutant alleles. NIH3T3 cells were engineered to express KRAS alleles either WT or mutant forms of amino acid glycine 12 (G12C, G12D, and G12V). Western blotting of NIH3T3 cells expressing dTAG fused to the N-terminus of KRAS alleles were treated with 1 uM of dFKBP13 for 24 hours. Cells were harvested and immunoblotted to measure degradation of dTAG-KRAS and downstream surrogates of KRAS signaling (e.g. pMEK and pAKT).
The dFKBP13 heterobifunctional compound potently degrades dTAG-KRAS mutant alleles. NIH3T3 cells were engineered to express either WT or mutant KRAS alleles (G13D, Q61L, and Q61R). Western blotting of NIH3T3 cells expressing dTAG fused to the N-terminus of KRAS alleles were treated with 1 uM of dFKBP13 for 24 hours. Cells were harvested and immunoblotted to measure degradation of dTAG-KRAS and downstream surrogates of KRAS signaling (e.g. pMEK and pAKT).

A further test concerns FKBP*-KRASG12V. In words: Immunoblot of FKBP*-KRASG12V (dTAG-KRAS) degradation in NIH3T3 cells. It is filed as cell-based. Conditions: for degradation of FKBP*-KRASG12V: 24 hours. How it is done: as §1, §2, §3, §4
FIG. 15 is an immunoblot of NIH3T3 cells expressing dTAG-KRASG12V pretreated with 1 uM Carfilzomib (proteasome inhibitor), 0.5 uM MLN4924 (neddylation inhibitor), and 10 uM Lenalidomide (CRBN binding ligand) for two hours prior to a 4 hour treatment with dFKBP13.
as §5, §6, §7, §8
NIH3T3 cells (CRBN-WT) were engineered to express dTAG-KRASG12V. Cells were pretreated with 1 uM Carfilzomib (proteasome inhibitor), 0.5 uM MLN4924 (neddylation inhibitor), and 10 uM Lenalidomide (CRBN binding ligand) for two hours prior to a 4 hour treatment with dFKBP13. Lysates were prepared and western immunoblot analysis performed. […] Pre-treatment with the NAE1 inhibitor MLN4924 rescued dTAG-KRASG12V expression establishing dependence on CRL activity, as expected for cullin-based ubiquitin ligases that require neddylation for processive E3 ligase activity. Pre-treatment with excess Lenalidomide abolished dFKBP13-dependent dTAG-KRASG12V degradation, confirming the requirement of CRBN engagement for degradation.

As to `CC[C@H](C(=O)N1CCCC[C@H]1C(=O)O[C@H](CCc1ccc(OC)c(OC)c1)c1cccc(OCC(=O)NCCCOCCOCCOCCCNC(=O)COc2cccc3c2C(=O)N(C2CCC(=O)NC2=O)C3=O)c1)c1cc(OC)c(OC)c(OC)c1` (some centres unmarked) [dFKBP7], the p-AKT signal entry in test [1] (NIH3T3 N-terminal dTAG-KRAS, 500 nM, indicated time) was “downstream decrease in p-AKT signal”. Also, in the test with FKBP*-KRASG12V (NIH3T3, 500 nM, indicated time), the “degradation of N-terminal dTAG-KRAS (FKBP*-KRASG12V)” value is “potent degradation; also recorded: degraded”.
Turning to `CC[C@H](C(=O)N1CCCC[C@H]1C(=O)O[C@H](CCc1ccc(OC)c(OC)c1)c1cccc(OCC(=O)NCCCCCCOc2cccc3c2C(=O)N(C2CCC(=O)NC2=O)C3=O)c1)c1cc(OC)c(OC)c(OC)c1` (some centres unmarked) [dFKBP13], the “downstream signaling (pMEK and pAKT)” value is listed as “inhibition of downstream signaling” in test [1] (NIH3T3 FKBP*-KRASG12V, 1 uM, 24 hours); “potently inhibits downstream signaling” in test [1] (NIH3T3 dTAG-KRAS WT, G12C, G12D, G12V, 1 uM, 24 hours); “potently inhibits downstream signaling” in test [1] (NIH3T3 dTAG-KRAS WT, G13D, Q61L, Q61R, 1 uM, 24 hours). For the same compound, the “time to inhibition of downstream signaling” value in test [1] (NIH3T3 FKBP*-KRASG12V, 1 uM, post treatment) was no more than 1 h. Besides, the IC50 in test [1] (read-out: IC50 of inhibition of downstream signaling, NIH3T3 FKBP*-KRASG12V, 24 hours) is greater than 100 nM. Besides, the “degradation of FKBP*-KRASG12V” value with FKBP*-KRASG12V (NIH3T3, 1 uM) is listed as “potent degradation”; in the test on FKBP*-KRASG12V (NIH3T3, indicated concentrations), “potent degradation”. Further, the “time to degradation of FKBP*-KRASG12V” value in the test with FKBP*-KRASG12V (NIH3T3, 1 uM, post treatment) is no more than 1 h. Moreover, the “mechanism of dTAG-KRASG12V degradation” value in the test on FKBP*-KRASG12V (NIH3T3 CRBN-WT, 4 hour treatment after inhibitor pretreatment) was “CRBN- and proteasome-dependent degradation”.
